One data set is described as follows: in vivo. As to conditions: Mouse Balb Nu/Nu, single; for clearance / half-life / Vd: 10 mg/kg IV bolus; for clearance: read-out: CL (mL/h/kg) Plasma clearance (converted); for half-life: read-out: T1/2 (h) Terminal half-life (converted); for Vd: read-out: Vdss (mL/kg) Volume of distribution at steady state; for bioavailability: 10 mg/kg oral vs 10 mg/kg IV, read-out: F % Oral bioavailability. On the procedure: Calibration Standards and Quality Controls were prepared spiking blank mouse plasma with appropriate working solutions.
Sample plasma proteins were precipitated by adding 160 μL of acetonitrile/methanol 90/10 to 20 μL of mouse plasma in a 96 well plate.
After heat sealing and mixing for 3 minutes, the plate was centrifuged for 15 minutes at 4000 rpm.
The supernatant was considered as final extract and injected onto the LC-MS-MS system.
• UPLC system: Waters Acquity BSM • Mobile phase A: 95:5-5 mM Ammonium Formate pH3.5: Acetonitrile • Mobile phase B: 5:95-5 mM Ammonium Formate pH3.5: Acetonitrile • Analytical column: BEH C18 50×2.1 1.7 μm • Elution conditions:
• Total Run Time: 2.0 min. • Flow rate: 0.500 mL/min • Approximate retention time: NMS-03308086: 0.67 min. • Column oven temp: 40° C. • Autosampler type: Waters Acquity SM • Injection volume: 3 μL • Injection mode: Partial Loop with Needle Overfill • Autosampler temperature: 5° C. • MS instrument: Waters TQD • Ionisation: ES+ • Capillary: 1.5 kV • Cone: 70 V • Source Temperature: 150° C. • Desolvation Flow and Temp.: 900 L/h-400° C. • Collision Gas Flow: 0.2 mL/min • Collision Energy: 40 • MRM transitions: NMS-03308086: m/z 579.1>m/z 97.0 • Dwell Time: 0.1 seconds • LLOQ: 5.0 ng/mL • ULOQ: 5000 ng/mL • Software used: Mass Lynx 4.1 SCN627

The test system of data set [1] is Her2 protein levels in BT474 breast cancer cells. The data set is described as follows: Her2 Degradation Assay. Format: cell-based. As to conditions: Homo sapiens. On the procedure:
The potencies of the compounds of the present invention were evaluated by measuring the Her2 degradation as a marker for HSP90 inhibition.
HSP90 is a key component of a chaperone machinery that catalyzes the folding and quality control of several proteins. Its inhibition impairs the capacity to fold or stabilize its client proteins, leading to the proteosomal dependent degradation of these unfolded proteins. […] Cellular activity of HSP90 inhibitors was assessed by measuring the induced loss of Her2 protein levels in BT474 breast cancer cells (ATCC #HTB-20). Cellular Her2 levels were measured by immunocytochemistry, and quantified using an ArrayScan vTi instrument (Cellomics Thermo Scientific).
Cellular activity of HSP90 inhibitors was assessed by measuring the induced loss of Her2 protein levels in BT474 breast cancer cells (ATCC #HTB-20). Cellular Her2 levels were measured by immunocytochemistry, and quantified using an ArrayScan vTi instrument (Cellomics Thermo Scientific).
Studies were performed as follows: 5000 cells/well are seeded in 96 well plates (Perkin Elmer) in DMEM/5% FCS and incubated for 48 hours at 37° C., 5% CO2.
Medium is then replaced with fresh medium containing test compounds at the required concentration. Concentration curves are prepared in DMEM/10% FCS from compound stocks in DMSO, and final DMSO concentration is 0.1% (v/v). Duplicate wells for each concentration point are prepared, with a typical highest compound concentration of 30 μM. […] Plates are incubated for 20 minutes at room temperature, then wells are washed in PBS and cells permiabilised by incubating with PBS containing 0.3% Triton X-100 for 15 minutes at room temperature. Non-specific binding sites are blocked by incubating wells for 1 hour in PBS containing 3% (w/v) BSA. Wells are then incubated for 1 hour at room temperature in PBS containing anti Her2 mouse monoclonal (Anti-c-ErbB2/c-Neu, Mouse mAb 3B5, Calbiochem Cat N^o OP15) diluted 1:100 in 1% (w/v) BSA. […] After washing a further 3 times in PBS, cellular Her2 immunoreactivity is assessed using the ArrayScan vTi instrument, with a Zeiss 10× 0.5 N.A. objective, and applying the Cytotoxity.V3 algorithm (Cellomics/Thermo Fisher) with a XF100 filter. At least 10 fields, corresponding to at least 900 cells, are read for each well.
IC50 is the response; IC50 starts at Bottom and goes to Top with a sigmoid shape. In Vitro Cell Proliferation Assay

For data set [2], the system named is A2780 human ovarian cells. The data set is described as follows: In Vitro Cell Proliferation Assay. It is filed as cell-based. The procedure: The cells were incubated at 37° C. and 5% CO2 and after 72 hours the plates were processed using CellTiter-Glo assay (Promega) following the manufacturer's instruction.
CellTiter-Glo is a homogenous method based on the quantification of the ATP present, an indicator of metabolically active cells. ATP is quantified using a system based on luciferase and D-luciferin resulting into light generation. The luminescent signal is proportional to the number of cells present in culture.
Briefly 25 μL/well reagent solution are added to each wells and after 5 minutes shacking microplates are red by a luminometer. The luminescent signal is proportional to the number of cells present in culture.

The next data set has as its target His-HSP90 N-term domain. The data set is described as follows: Determination of KD Via Biacore. It is filed as binding. As to conditions: Biacore T100. The procedure:
The evaluation of the binding affinity (KD) of the compounds of formula (I) to the HSP90 protein was done using Biacore T100.
His-HSP90 N-term domain was immobilized by capture of his tag by the Ab previously covalently bound to the chip (CM5) surface.
The compounds were analyzed using the following running buffer: 20 mM Tris/HCl pH 7.6, 150 mM KCl, 5 mM MgCl2, 0.05% P20 and 1% DMSO. The flow rate was 50 ul/min with and association time of 60 seconds.
The cpds were diluted in running buffer from 100× stock solution; the different conc injected were obtained from a sequential dilution in order to have the same DMSO conc. in each sample and avoid any solvent correction.

Setting [3] is: BT-474, 8 h, read-out: Her2 Degradation IC50 (μM).
Where [4] appears, read: Homo sapiens, A2780, 72 h, read-out: A2780 Proliferation IC50 (μM).
Where [5] appears, read: BT-474, BT474 breast cancer cells, 8 hours, read-out: Her2 Degradation IC50.
[6] abbreviates: A2780 human ovarian cells, 72 hours, CellTiter-Glo, read-out: A2780 Proliferation IC50.

Where two headings read alike, the source gives them in different places.

With `CN(C)c1ccc(Oc2cc(O)cc(O)c2-c2cc(C(=O)NC3CCN(C4CCC5(CC4)OCCO5)CC3)no2)cc1`, in “in vivo”, the clearance was 1760 mL/h/kg, the half-life is 5.46 h, the Vd was found to be 4940 mL/kg and the bioavailability was found to be 36%.
`CN1CCC(NC(=O)c2cc(-c3c(O)cc(O)cc3Oc3ccc([N+](=O)[O-])cc3)no2)CC1` [3-[2,4-Dihydroxy-6-(4-nitrophenoxy)phenyl]-N-(1-methylpiperidin-4-yl)isoxazole-5-carboxamide]: the IC50 in data set [1] (setting [3]) turned out to be 0.022 µM. The IC50 in data set [2] (setting [4]) came to 0.02 µM. This compound had a Kd on His-HSP90 N-term domain of 0.24 nM. Moreover, in “in vivo”, the clearance is 3420 mL/h/kg, the half-life is 1.52 h, the Vd turned out to be 4470 mL/kg and the bioavailability was found to be 7%.
With `CN(C)c1ccc(Oc2cc(O)cc(O)c2-c2cc(C(=O)NC3CCN(C4CCC5(CC4)OCCO5)CC3)on2)cc1` [3-{2-[4-(Dimethylamino)phenoxy]-4,6-dihydroxyphenyl}-N-[1-(1,4-dioxaspiro[4.5]dec-8-yl)piperidin-4-yl]isoxazole-5-carboxamide], the IC50 in data set [1] (setting [5]) was determined as 0.003 µM. In data set [2] (setting [6]), the IC50 amounted to 0.02 µM. The compound also registered a Kd on His-HSP90 N-term domain of 0.043 nM. In addition, in “in vivo”, the clearance was 1910 mL/h/kg, the half-life is 7.23 h, the Vd is 9120 mL/kg and the bioavailability was 23%.
Regarding `CC(C)N1CCC(NC(=O)c2cc(-c3c(O)cc(O)cc3Oc3ccc([N+](=O)[O-])cc3)on2)CC1` [5-[2,4-Dihydroxy-6-(4-nitrophenoxy)phenyl]-N-[1-(propan-2-yl)piperidin-4-yl]isoxazole-3-carboxamide], in data set [1] (setting [3]), the IC50 turned out to be 0.058 µM.
Turning to `CCNC(=O)c1cc(-c2c(O)cc(O)cc2Oc2ccc([N+](=O)[O-])cc2)on1` [5-[2,4-Dihydroxy-6-(4-nitrophenoxy)phenyl]-N-ethyl isoxazole-3-carboxamide], the IC50 in data set [1] (setting [3]) was 0.059 µM; in data set [2] (setting [4]) it was 0.07 µM.
As for `CCNC(=O)c1cc(-c2c(O)cc(O)cc2Oc2ccc(C#N)cc2)on1` [5-[2-(4-Cyanophenoxy)-4,6-dihydroxyphenyl]-N-ethylisoxazole-3-carboxamide], the IC50 in data set [1] (setting [5]) turned out to be 0.277 µM.
For `CCNC(=O)c1cc(-c2c(O)cc(O)cc2Oc2ccc(Cl)cc2)on1` [5-[2-(4-chlorophenoxy)-4,6-dihydroxyphenyl]-N-ethylisoxazole-3-carboxamide], the IC50 in data set [1] (setting [3]) worked out at 0.059 µM.
With `CN(C)c1ccc(Oc2cc(O)cc(O)c2-c2cc(C(=O)NC3CCN(C4CCC5(CC4)OCC(C)(C)CO5)CC3)no2)cc1` [5-{2-[4-(Dimethylamino)phenoxy]-4,6-dihydroxyphenyl}-N-[1-(3,3-dimethyl-1,5-dioxaspiro[5.5]undec-9-yl)piperidin-4-yl]isoxazole-3-carboxamide], in data set [1] (setting [5]), the IC50 came to 0.037 µM. Also, in data set [2] (setting [6]), the IC50 stood at 0.035 µM. Also, at His-HSP90 N-term domain, the affinity, expressed as Kd, was 0.08 nM. In the data set “in vivo”, the clearance was 1340 mL/h/kg, the half-life was 6.71 h, the Vd is 6000 mL/kg and the bioavailability came out at 19%.
Turning to `CN(C)c1ccc(Oc2cc(O)cc(O)c2-c2cc(C(=O)NC3CCN(C4CCC5(CC4)OCCCCO5)CC3)no2)cc1` [5-{2-[4-(Dimethylamino)phenoxy]-4,6-dihydroxyphenyl}-N-[1-(7,12-dioxaspiro[5.6]dodec-3-yl)piperidin-4-yl]isoxazole-3-carboxamide], the IC50 in data set [1] (setting [5]) stood at 0.045 µM. Besides, in data set [2] (setting [6]), the IC50 was 0.023 µM. The same compound had a Kd at His-HSP90 N-term domain of 0.423 nM. Moreover, in “in vivo”, the clearance is 1310 mL/h/kg, the half-life was 6.87 h, the Vd worked out at 5980 mL/kg and the bioavailability is 14%.
In the case of `CN(C)c1ccc(Oc2cc(O)cc(O)c2-c2cc(C(=O)NC3CCN(C4CCCCC4)CC3)no2)cc1` [N-(1-Cyclohexylpiperidin-4-yl)-5-{2-[4-(dimethylamino)phenoxy]-4,6-dihydroxyphenyl}isoxazole-3-carboxamide], in data set [1] (setting [3]), the IC50 was 0.003 µM.
Regarding `O=C(NC1CCN(C2CCC(F)(F)CC2)CC1)c1cc(-c2c(O)cc(O)cc2Oc2ccc([N+](=O)[O-])cc2)on1` [N-[1-(4,4-Difluorocyclohexyl)piperidin-4-yl]-5-[2,4-dihydroxy-6-(4-nitrophenoxy)phenyl]isoxazole-3-carboxamide], the IC50 in data set [1] (setting [3]) worked out at 0.027 µM; in data set [2] (setting [4]), 0.05 µM. On His-HSP90 N-term domain, this compound displayed a Kd of 0.8 nM.
In the case of `CN(C)c1ccc(Oc2cc(O)cc(O)c2-c2cc(C(=O)NC3CCN(C4CCC(F)(F)CC4)CC3)no2)cc1` [N-[1-(4,4-Difluorocyclohexyl)piperidin-4-yl]-5-{2-[4-(dimethylamino)phenoxy]-4,6-dihydroxyphenyl}isoxazole-3-carboxamide], the values for the IC50 in data set [1] (setting [3]) and in data set [2] (setting [4]) were 0.002 µM and 0.02 µM, respectively. Binding at His-HSP90 N-term domain was characterised by a dissociation constant (Kd) of 0.057 nM.
The corresponding values for `CN(C)c1ccc(Oc2cc(O)cc(O)c2-c2cc(C(=O)NC3CCN(CC4CCCCC4)CC3)no2)cc1` [N-[1-(Cyclohexylmethyl)piperidin-4-yl]-5-{2-[4-(dimethylamino)phenoxy]-4,6-dihydroxyphenyl}isoxazole-3-carboxamide] are 0.02 µM, 0.01 µM and 0.188 nM.

(Values after patent publication US8993556B2, “Resorcinol derivatives as HSP90 inhibitors” (priority 2009, dated 2015).)
